A word on the pIC50: it is −log10 of the IC50, conventionally taken in molar units.

Data on two compounds can be found in patent EP0712403B1, “MATRIX METALLOPROTEASE INHIBITORS” (SYNTEX (U.S.A.) INC., priority 1993, dated 1995).

pIC50: −log10 of the molar value.

Test [1] has as its target T1, HFC (Homo sapiens, UniProt P03956).
T1 construct: endogenous in cells; host or cells: GM0010A fibroblasts stimulated with PMA; enzyme purified from serum-free culture medium
T1 sequence (P03956 100-469): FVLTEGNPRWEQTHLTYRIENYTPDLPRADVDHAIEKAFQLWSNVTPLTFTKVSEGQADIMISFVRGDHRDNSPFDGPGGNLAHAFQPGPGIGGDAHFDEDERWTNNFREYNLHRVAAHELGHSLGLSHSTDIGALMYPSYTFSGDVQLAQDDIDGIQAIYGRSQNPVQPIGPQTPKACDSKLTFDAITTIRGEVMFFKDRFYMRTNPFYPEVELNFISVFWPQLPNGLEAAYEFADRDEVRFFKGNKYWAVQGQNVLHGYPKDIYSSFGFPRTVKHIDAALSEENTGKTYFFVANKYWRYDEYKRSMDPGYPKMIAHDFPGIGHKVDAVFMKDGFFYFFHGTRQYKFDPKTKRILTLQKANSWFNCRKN
Kind of test: In vitro collagenase inhibition assay (thiopeptide/DACM fluorescence). The format is biochemical. On the procedure: (§1) Compounds of formula (I) were dissolved in DMSO and added to a cuvette containing 0.2 µg Type I or 0.03 µg Type IV collagenase in 1 ml TC buffer (20mM Tris, 5mM CaCl2, pH 7.5) (2% DMSO final concentration). The concentrations of the compounds of formula (I) were chosen such that there was at least one data point for every 20% change in activity. Enzyme and compounds were permitted to pre-incubate 3 min at 37°C. To initiate the reaction, N-(7-dimethylamino-4-methyl)coumarinyl ("DACM") (Sigma) and thiopeptide (Ac-Pro-Leu-Gly-S-"Leu"-Leu-Gly-OEt, Bachem Bioscience Inc.) were added to 20 uM each. […] Each data point is the average of duplicate experiments. At least six data points, expressed as change in fluorescence per minute versus compound concentration were analyzed using the IC50 fit in the program, Enzfitter.

The target in test [2] is HNC (Homo sapiens, UniProt P22894). The experiment in a line: In vitro metalloprotease inhibition assay (thiopeptide/DACM fluorescence). The class given is biochemical.
Test [3] has as its target HNG (Homo sapiens, UniProt P14780). The test is described as above. The class given is biochemical. The settings on record: read-out: Ki or IC50 HNG. On the procedure: as §1
For test [4], the target named is SLN (Homo sapiens, UniProt P08254). The test is described as above. The format is biochemical.
Test [5] has as its system cartilage explants. The experiment in a line: Release of 35S-labelled glycosaminoglycans from cartilage explants. The format is cell-based. The settings on record: Bos taurus; inhibition of rhIL-1-alpha induced release of 35S-labelled GAG's, bovine knee joint cartilage explants. On the procedure: This assay determines if the compounds of formula (I) inhibit the release of ^35S-labelled glycosaminoglycans (GAG's) from cartilage explants.
Small cartilage explants (3 mm diameter) were prepared from freshly sacrificed bovine knee joints and labeled with ^35SO4. ^35S-labelled glycosaminoglycans (GAG's) are released into the culture medium in response to the addition of rhIL-1-alpha, which induces the expression of chondrocyte matrix metalloproteases (MMP's), including stromelysin and collagenase. The percent inhibition of labeled GAG's was corrected for spontaneous release in the absence of rhlL-1-alpha. Results for each group represent the mean ± the S.E.M. for five explants.

Test [6] relates to fetal rat long bones. Kind of test: Fetal rat long bone model, bovine PTH induced bone resorption (45Ca release). The class given is cell-based. The settings on record: 144 h.
Text: An in vitro fetal rat long bone model was used to study the anti-bone resorptive effect of the compounds of formula (I). Bovine PTH was used to induce bone resorption in vitro. The bone resorptive effects were expressed by the amounts of ^45Ca released from the ^45Ca pre-labelled fetal rat long bones into the culture medium. The inhibitory effect of the compounds of formula (I) against bovine PTH induced bone resorption was expressed as mean percent inhibition ± sem.
^45Ca-prelabelled fetal rat long bones (from forearms) were dissected and cultured in Linbro dishes at 37°C overnight BGJb medium, supplemented with 1mg/ml BSA. There were five pairs of bones in each group. The compounds of formula (I) were dissolved in ethanol first, then diluted to various concentrations and added simultaneously with Bovine PTH (1-34) at 1x10^8M on Day 1. […] The assay was terminated on Day 6 with one media change on Day 3.
At the end of each medium change, the ^45Ca present in the culture medium was counted. The remaining bones were digested with 0.1N HCl and the ^45Ca presented in the bone digest was also counted. The results are expressed as % of the total ^45Ca released from each pair of bones. Bovine PTH at 1x10^-8M induces bone resorption to the maximum level which is set as 100% and this concentration was used as standard. […]
The target in test [7] is T2, Matr (Homo sapiens, UniProt P09237).
T2 sequence (P09237 95-267): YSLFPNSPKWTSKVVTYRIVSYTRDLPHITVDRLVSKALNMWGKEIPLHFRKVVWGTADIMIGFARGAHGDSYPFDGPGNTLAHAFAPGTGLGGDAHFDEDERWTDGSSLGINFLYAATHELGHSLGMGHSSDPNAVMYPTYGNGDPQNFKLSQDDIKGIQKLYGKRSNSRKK
The experiment in a line: In vitro metalloprotease inhibition assay (thiopeptide/DACM fluorescence). The class given is biochemical. The note with it: read-out: Ki or IC50 Matr.

HNG, sequence (P14780 107-707 limits assumed): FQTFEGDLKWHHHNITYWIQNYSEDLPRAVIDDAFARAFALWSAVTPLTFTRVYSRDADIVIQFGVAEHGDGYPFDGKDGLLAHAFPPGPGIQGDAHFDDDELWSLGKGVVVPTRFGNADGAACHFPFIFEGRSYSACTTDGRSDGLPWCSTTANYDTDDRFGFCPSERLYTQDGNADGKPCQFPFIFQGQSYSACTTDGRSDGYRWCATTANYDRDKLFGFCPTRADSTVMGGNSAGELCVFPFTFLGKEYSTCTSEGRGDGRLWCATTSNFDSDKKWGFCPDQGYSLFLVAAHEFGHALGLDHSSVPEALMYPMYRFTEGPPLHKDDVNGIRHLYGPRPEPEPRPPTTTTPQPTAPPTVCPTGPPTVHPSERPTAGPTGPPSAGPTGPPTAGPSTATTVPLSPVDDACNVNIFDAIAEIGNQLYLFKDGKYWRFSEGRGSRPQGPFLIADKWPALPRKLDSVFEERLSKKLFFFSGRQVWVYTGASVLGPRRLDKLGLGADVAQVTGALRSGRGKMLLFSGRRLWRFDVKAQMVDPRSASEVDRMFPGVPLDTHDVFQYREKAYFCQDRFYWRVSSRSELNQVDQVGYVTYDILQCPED
HNC, sequence (P22894 101-467): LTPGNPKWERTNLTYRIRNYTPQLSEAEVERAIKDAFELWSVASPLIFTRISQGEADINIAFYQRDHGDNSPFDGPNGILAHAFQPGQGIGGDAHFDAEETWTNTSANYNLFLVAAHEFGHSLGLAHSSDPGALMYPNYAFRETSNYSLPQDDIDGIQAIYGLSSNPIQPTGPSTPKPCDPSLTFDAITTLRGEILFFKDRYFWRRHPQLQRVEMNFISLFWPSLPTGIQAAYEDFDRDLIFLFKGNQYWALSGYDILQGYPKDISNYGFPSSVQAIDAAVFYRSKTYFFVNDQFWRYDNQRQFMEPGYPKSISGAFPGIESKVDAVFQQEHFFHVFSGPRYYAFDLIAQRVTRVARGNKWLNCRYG
SLN, sequence (P08254 100-477): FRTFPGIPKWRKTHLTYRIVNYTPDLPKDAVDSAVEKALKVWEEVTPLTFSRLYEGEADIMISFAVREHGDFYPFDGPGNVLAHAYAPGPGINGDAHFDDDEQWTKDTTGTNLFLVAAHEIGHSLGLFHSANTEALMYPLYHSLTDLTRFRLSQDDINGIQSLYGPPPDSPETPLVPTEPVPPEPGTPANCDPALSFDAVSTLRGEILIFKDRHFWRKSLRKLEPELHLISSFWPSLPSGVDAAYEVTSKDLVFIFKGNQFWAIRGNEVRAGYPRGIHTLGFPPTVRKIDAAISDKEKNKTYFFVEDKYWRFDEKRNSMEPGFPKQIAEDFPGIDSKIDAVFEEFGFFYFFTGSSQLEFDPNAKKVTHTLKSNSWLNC

As for `CC(C)CC(CP(=O)(O)CSc1ccc2ccccc2n1)C(=O)N[C@H]1Cc2cn(c3ccccc23)CCCCCCNC1=O` (stereo partly drawn) [Compound 4, (10S)-[4-methyl-2-(9-oxo-1,8-diazatricyclo[10.6.1.0^13,18]nonadeca-12(19),13(18),14,16-tetraen-10-ylcarbamoyl)pentyl] (quinolin-2-ylthiomethyl)phosphinic acid], the pIC50 in test [1] is 8.30; in test [2], 8.40; in test [3], 7.85; in test [4], under 6.10; in test [5], 4.30; in test [6], 5.30.
Turning to `CC(C)CC(CC(=O)NO)C(=O)N[C@H]1Cc2cn(c3ccccc23)CCCCCCCNC1=O` (stereo partly drawn) [Compound 2, (11S)-N-hydroxy-5-methyl-3-(10-oxo-1,9-diazatricyclo-[11.6.1.0^14,19]eicosa-13(20),14(19),15,17-tetraen-11-ylcarbamoyl)hexanamide], the results for the negative-log IC50 (pIC50) in test [3], in test [7] and in test [5] were 9.70, 8.52 and 4.40, respectively.
